# In ChEMBL document CHEMBL3885881, “DrugMatrix”:
# Species on record: Rattus norvegicus
# Experiment: DrugMatrix - Regimen: Daily Repeat
# Assay type: toxicity, organism-based, Sprague-Dawley
# Design: regimen Daily Repeat, gender Male, age 6-8 weeks
# Details: in vivo, po, route oral GAVAGE, […]; for ABSOLUTE BASOPHIL / ABSOLUTE EOSINOPHIL / ABSOLUTE LYMPHOCYTE / ABSOLUTE MONOCYTE / ABSOLUTE SEGMENTED NEUTROPHIL / BASOPHIL / EOSINOPHIL / ERYTHROCYTE COUNT / HEMATOCRIT / HEMOGLOBIN / LEUKOCYTE COUNT / LYMPHOCYTE / MEAN CORPUSCULAR HEMOGLOBIN / MEAN CORPUSCULAR HEMOGLOBIN CONCENTRATION / MEAN CORPUSCULAR VOLUME / MONOCYTE / NEUTROPHIL / NUCLEATED RED BLOOD CELLS / PLATELET COUNT: tissue Blood; for ALANINE AMINOTRANSFERASE / ALBUMIN / ALKALINE PHOSPHATASE / ASPARTATE AMINOTRANSFERASE / BLOOD UREA NITROGEN / CARBON DIOXIDE / CHLORIDE / CHOLESTEROL / CREATINE PHOSPHOKINASE / CREATININE / GLUCOSE / LACTATE DEHYDROGENASE / LIPASE / PHOSPHORUS / POTASSIUM / SODIUM / TOTAL BILIRUBIN / TOTAL PROTEIN / URIC ACID: tissue Plasma
# [1] = 0 mg/kg, 72 h, dose level Control, time 3 day
# [2] = 0 mg/kg, 120 h, dose level Control, time 5 day
# [3] = 72 h, dose 4.2 mg/Kg, dose level Low, time 3 day
# [4] = 120 h, dose 4.2 mg/Kg, dose level Low, time 5 day
structure (smiles),measurement,setting,value
O=NN(CCCl)C(=O)NC1CCCCC1 [LOMUSTINE],ABSOLUTE BASOPHIL,[1],0 CELLS/uL
same,ABSOLUTE EOSINOPHIL,[1],70.67 CELLS/uL
same,ABSOLUTE LYMPHOCYTE,[1],12761.5 CELLS/uL
same,ABSOLUTE MONOCYTE,[1],214.17 CELLS/uL
same,ABSOLUTE SEGMENTED NEUTROPHIL,[1],987 CELLS/uL
same,BASOPHIL,[1],0%
same,EOSINOPHIL,[1],0.5%
same,ERYTHROCYTE COUNT,[1],5.61 x10E6/uL
same,HEMATOCRIT,[1],35.22%
same,HEMOGLOBIN,[1],13.57 G/DL
same,LEUKOCYTE COUNT,[1],14.03 x10E3/uL
same,LYMPHOCYTE,[1],91%
same,MEAN CORPUSCULAR HEMOGLOBIN,[1],24.25 pg
same,MEAN CORPUSCULAR HEMOGLOBIN CONCENTRATION,[1],38.52 G/DL
same,MEAN CORPUSCULAR VOLUME,[1],62.9 fL
same,MONOCYTE,[1],1.5%
same,NEUTROPHIL,[1],7%
same,NUCLEATED RED BLOOD CELLS,[1],0 /100WBC
same,PLATELET COUNT,[1],997.5 x10E3/uL
same,ALANINE AMINOTRANSFERASE,[1],66.5 u/L
same,ALBUMIN,[1],3.98 G/DL
same,ALKALINE PHOSPHATASE,[1],350 u/L
same,ASPARTATE AMINOTRANSFERASE,[1],83.83 u/L
same,BLOOD UREA NITROGEN,[1],12.33 mg/dL
same,CARBON DIOXIDE,[1],30.33 mmol/L
same,CHLORIDE,[1],100 MEQ/L
same,CHOLESTEROL,[1],75 mg/dL
same,CREATINE PHOSPHOKINASE,[1],200 u/L
same,CREATININE,[1],0.17 mg/dL
same,GLUCOSE,[1],170 mg/dL
same,LACTATE DEHYDROGENASE,[1],89.33 u/L
same,LIPASE,[1],10.33 u/L
same,PHOSPHORUS,[1],10.88 mg/dL
same,POTASSIUM,[1],6.13 MEQ/L
same,SODIUM,[1],140.53 MEQ/L
same,TOTAL BILIRUBIN,[1],0.2 mg/dL
same,TOTAL PROTEIN,[1],5.67 G/DL
same,URIC ACID,[1],1.6 mg/dL
same,ABSOLUTE BASOPHIL,[2],0 CELLS/uL
same,ABSOLUTE EOSINOPHIL,[2],0 CELLS/uL
same,ABSOLUTE LYMPHOCYTE,[2],9526.67 CELLS/uL
same,ABSOLUTE MONOCYTE,[2],134.17 CELLS/uL
same,ABSOLUTE SEGMENTED NEUTROPHIL,[2],922.5 CELLS/uL
same,BASOPHIL,[2],0%
same,EOSINOPHIL,[2],0%
same,ERYTHROCYTE COUNT,[2],5.58 x10E6/uL
same,HEMATOCRIT,[2],34.78%
same,HEMOGLOBIN,[2],13.5 G/DL
same,LEUKOCYTE COUNT,[2],10.58 x10E3/uL
same,LYMPHOCYTE,[2],90.17%
same,MEAN CORPUSCULAR HEMOGLOBIN,[2],24.27 pg
same,MEAN CORPUSCULAR HEMOGLOBIN CONCENTRATION,[2],38.82 G/DL
same,MEAN CORPUSCULAR VOLUME,[2],62.48 fL
same,MONOCYTE,[2],1.17%
same,NEUTROPHIL,[2],8.67%
same,NUCLEATED RED BLOOD CELLS,[2],0.17 /100WBC
same,PLATELET COUNT,[2],807.17 x10E3/uL
same,ALANINE AMINOTRANSFERASE,[2],66.83 u/L
same,ALBUMIN,[2],3.73 G/DL
same,ALKALINE PHOSPHATASE,[2],286.17 u/L
same,ASPARTATE AMINOTRANSFERASE,[2],142.33 u/L
same,BLOOD UREA NITROGEN,[2],14.67 mg/dL
same,CARBON DIOXIDE,[2],25.5 mmol/L
same,CHLORIDE,[2],89.17 MEQ/L
same,CHOLESTEROL,[2],75.17 mg/dL
same,CREATINE PHOSPHOKINASE,[2],310.67 u/L
same,CREATININE,[2],0.2 mg/dL
same,GLUCOSE,[2],153 mg/dL
same,LACTATE DEHYDROGENASE,[2],1594 u/L
same,LIPASE,[2],14.83 u/L
same,PHOSPHORUS,[2],11.28 mg/dL
same,POTASSIUM,[2],8.46 MEQ/L
same,SODIUM,[2],126.88 MEQ/L
same,TOTAL BILIRUBIN,[2],0.37 mg/dL
same,TOTAL PROTEIN,[2],5.53 G/DL
same,URIC ACID,[2],1.52 mg/dL
same,ABSOLUTE BASOPHIL,[3],0 CELLS/uL
same,ABSOLUTE EOSINOPHIL,[3],32.67 CELLS/uL
same,ABSOLUTE LYMPHOCYTE,[3],10341.33 CELLS/uL
same,ABSOLUTE MONOCYTE,[3],0 CELLS/uL
same,BASOPHIL,[3],0%
same,EOSINOPHIL,[3],0.33%
same,ERYTHROCYTE COUNT,[3],5.55 x10E6/uL
same,HEMATOCRIT,[3],34.1%
same,HEMOGLOBIN,[3],13.57 G/DL
same,LEUKOCYTE COUNT,[3],10.97 x10E3/uL
same,LYMPHOCYTE,[3],94.33%
same,MEAN CORPUSCULAR HEMOGLOBIN,[3],24.43 pg
same,MEAN CORPUSCULAR HEMOGLOBIN CONCENTRATION,[3],39.77 G/DL
same,MEAN CORPUSCULAR VOLUME,[3],61.4 fL
same,MONOCYTE,[3],0%
same,NEUTROPHIL,[3],5.33%
same,NUCLEATED RED BLOOD CELLS,[3],0 /100WBC
same,PLATELET COUNT,[3],1095 x10E3/uL
same,ALANINE AMINOTRANSFERASE,[3],51.33 u/L
same,ALBUMIN,[3],3.83 G/DL
same,ALKALINE PHOSPHATASE,[3],333.67 u/L
same,ASPARTATE AMINOTRANSFERASE,[3],87.33 u/L
same,BLOOD UREA NITROGEN,[3],11.33 mg/dL
same,CARBON DIOXIDE,[3],25.67 mmol/L
same,CHLORIDE,[3],103 MEQ/L
same,CHOLESTEROL,[3],70 mg/dL
same,CREATINE PHOSPHOKINASE,[3],944.67 u/L
same,CREATININE,[3],0.19 mg/dL
same,GLUCOSE,[3],199 mg/dL
same,LACTATE DEHYDROGENASE,[3],127 u/L
same,LIPASE,[3],10.33 u/L
same,PHOSPHORUS,[3],11.7 mg/dL
same,POTASSIUM,[3],5.37 MEQ/L
same,SODIUM,[3],142.27 MEQ/L
same,TOTAL BILIRUBIN,[3],0.1 mg/dL
same,TOTAL PROTEIN,[3],5.5 G/DL
same,URIC ACID,[3],1.6 mg/dL
same,ABSOLUTE BASOPHIL,[4],0 CELLS/uL
same,ABSOLUTE EOSINOPHIL,[4],32 CELLS/uL
same,ABSOLUTE LYMPHOCYTE,[4],5295.33 CELLS/uL
same,ABSOLUTE MONOCYTE,[4],16 CELLS/uL
same,ABSOLUTE SEGMENTED NEUTROPHIL,[4],290 CELLS/uL
same,BASOPHIL,[4],0%
same,EOSINOPHIL,[4],0.67%
same,ERYTHROCYTE COUNT,[4],5.43 x10E6/uL
same,HEMATOCRIT,[4],33.87%
same,HEMOGLOBIN,[4],13.53 G/DL
same,LEUKOCYTE COUNT,[4],5.63 x10E3/uL
same,LYMPHOCYTE,[4],94%
same,MEAN CORPUSCULAR HEMOGLOBIN,[4],24.9 pg
same,MEAN CORPUSCULAR HEMOGLOBIN CONCENTRATION,[4],39.97 G/DL
same,MEAN CORPUSCULAR VOLUME,[4],62.43 fL
same,MONOCYTE,[4],0.33%
same,NEUTROPHIL,[4],5%
same,NUCLEATED RED BLOOD CELLS,[4],0 /100WBC
same,PLATELET COUNT,[4],1171.33 x10E3/uL
same,ALANINE AMINOTRANSFERASE,[4],53.33 u/L
same,ALBUMIN,[4],4.17 G/DL
same,ALKALINE PHOSPHATASE,[4],336 u/L
same,ASPARTATE AMINOTRANSFERASE,[4],97.33 u/L
same,BLOOD UREA NITROGEN,[4],10 mg/dL
same,CARBON DIOXIDE,[4],31.33 mmol/L
same,CHLORIDE,[4],101 MEQ/L
same,CHOLESTEROL,[4],63.33 mg/dL
same,CREATINE PHOSPHOKINASE,[4],631.67 u/L
same,CREATININE,[4],0.13 mg/dL
same,GLUCOSE,[4],157 mg/dL
same,LACTATE DEHYDROGENASE,[4],132 u/L
same,LIPASE,[4],11 u/L
same,PHOSPHORUS,[4],10.57 mg/dL
same,POTASSIUM,[4],5.78 MEQ/L
same,SODIUM,[4],147.05 MEQ/L
same,TOTAL BILIRUBIN,[4],0.13 mg/dL
same,TOTAL PROTEIN,[4],5.93 G/DL
same,URIC ACID,[4],0.77 mg/dL
